From patent US20240109880A1 (Insilico Medicine IP Limited, priority 2021, published 2024)

Target: KAT6A (Homo sapiens (Human), UniProt Q92794)
Assay: KAT6A Biochemical Assay (radiometric 384-well, [3H]-Ac-CoA, biotinylated H4(1-30) peptide)
Details: 5 nM KAT6A enzyme solution (2×), 60 min reaction at room temperature
Experimental: Inhibition of KAT6A enzymatic activity by test compounds was determined using a radiometric 384-well format assay. A 10-point serial dilution of the test compounds were conducted in DMSO and then a volume of 200 nL was transferred into 384-well assay plate by Echo (Labcyte). 10 μL of 2× enzyme solution (5 nM KAT6A (Active Motif) in assay buffer (50 mM Tris-HCl pH 8.0, 50 mM KCl, 0.1 mM EDTA, 5% glycerol, 1 mM DTT)) was dispensed into assay plate except for low control wells, in which 10 μL of assay buffer was transferred. The plate was incubated at room temperature for 15 min before addition of 10 μL of 2×[^3H]-acetyl coenzyme A (Ac-CoA) and substrate peptide mix solution (500 nM (KAT6A) [^3H]-Ac-CoA (PerkinElmer) and 800 nM (KAT6A) biotinylated H4(1-30) peptide (GL Biochem) in assay buffer) to each well to start reaction. The plate was incubated at room temperature for 60 min (KAT6A), and then the reaction was stopped by adding 10 μL of stop solution (cold Ac-CoA (Cayman) in 1× assay buffer). 25 μL of reaction in each well was transferred to Flashplate (PerkinElmer) and incubated for another 1 hour at room temperature. The plate was read on Microbeta and the inhibition percentage of each compound treated well was calculated based on the equation in h %=(Max−sample)/(Max−Min)*100 where Max is signal from high control wells with enzyme, and Min is signal from low control wells with assay buffer only. The in h % data were further fit in XL-Fit to obtain IC50 values using a 4-parameter logistic (4PL) sigmoidal curve model.

Chain of KAT6A (Q92794 whole entry): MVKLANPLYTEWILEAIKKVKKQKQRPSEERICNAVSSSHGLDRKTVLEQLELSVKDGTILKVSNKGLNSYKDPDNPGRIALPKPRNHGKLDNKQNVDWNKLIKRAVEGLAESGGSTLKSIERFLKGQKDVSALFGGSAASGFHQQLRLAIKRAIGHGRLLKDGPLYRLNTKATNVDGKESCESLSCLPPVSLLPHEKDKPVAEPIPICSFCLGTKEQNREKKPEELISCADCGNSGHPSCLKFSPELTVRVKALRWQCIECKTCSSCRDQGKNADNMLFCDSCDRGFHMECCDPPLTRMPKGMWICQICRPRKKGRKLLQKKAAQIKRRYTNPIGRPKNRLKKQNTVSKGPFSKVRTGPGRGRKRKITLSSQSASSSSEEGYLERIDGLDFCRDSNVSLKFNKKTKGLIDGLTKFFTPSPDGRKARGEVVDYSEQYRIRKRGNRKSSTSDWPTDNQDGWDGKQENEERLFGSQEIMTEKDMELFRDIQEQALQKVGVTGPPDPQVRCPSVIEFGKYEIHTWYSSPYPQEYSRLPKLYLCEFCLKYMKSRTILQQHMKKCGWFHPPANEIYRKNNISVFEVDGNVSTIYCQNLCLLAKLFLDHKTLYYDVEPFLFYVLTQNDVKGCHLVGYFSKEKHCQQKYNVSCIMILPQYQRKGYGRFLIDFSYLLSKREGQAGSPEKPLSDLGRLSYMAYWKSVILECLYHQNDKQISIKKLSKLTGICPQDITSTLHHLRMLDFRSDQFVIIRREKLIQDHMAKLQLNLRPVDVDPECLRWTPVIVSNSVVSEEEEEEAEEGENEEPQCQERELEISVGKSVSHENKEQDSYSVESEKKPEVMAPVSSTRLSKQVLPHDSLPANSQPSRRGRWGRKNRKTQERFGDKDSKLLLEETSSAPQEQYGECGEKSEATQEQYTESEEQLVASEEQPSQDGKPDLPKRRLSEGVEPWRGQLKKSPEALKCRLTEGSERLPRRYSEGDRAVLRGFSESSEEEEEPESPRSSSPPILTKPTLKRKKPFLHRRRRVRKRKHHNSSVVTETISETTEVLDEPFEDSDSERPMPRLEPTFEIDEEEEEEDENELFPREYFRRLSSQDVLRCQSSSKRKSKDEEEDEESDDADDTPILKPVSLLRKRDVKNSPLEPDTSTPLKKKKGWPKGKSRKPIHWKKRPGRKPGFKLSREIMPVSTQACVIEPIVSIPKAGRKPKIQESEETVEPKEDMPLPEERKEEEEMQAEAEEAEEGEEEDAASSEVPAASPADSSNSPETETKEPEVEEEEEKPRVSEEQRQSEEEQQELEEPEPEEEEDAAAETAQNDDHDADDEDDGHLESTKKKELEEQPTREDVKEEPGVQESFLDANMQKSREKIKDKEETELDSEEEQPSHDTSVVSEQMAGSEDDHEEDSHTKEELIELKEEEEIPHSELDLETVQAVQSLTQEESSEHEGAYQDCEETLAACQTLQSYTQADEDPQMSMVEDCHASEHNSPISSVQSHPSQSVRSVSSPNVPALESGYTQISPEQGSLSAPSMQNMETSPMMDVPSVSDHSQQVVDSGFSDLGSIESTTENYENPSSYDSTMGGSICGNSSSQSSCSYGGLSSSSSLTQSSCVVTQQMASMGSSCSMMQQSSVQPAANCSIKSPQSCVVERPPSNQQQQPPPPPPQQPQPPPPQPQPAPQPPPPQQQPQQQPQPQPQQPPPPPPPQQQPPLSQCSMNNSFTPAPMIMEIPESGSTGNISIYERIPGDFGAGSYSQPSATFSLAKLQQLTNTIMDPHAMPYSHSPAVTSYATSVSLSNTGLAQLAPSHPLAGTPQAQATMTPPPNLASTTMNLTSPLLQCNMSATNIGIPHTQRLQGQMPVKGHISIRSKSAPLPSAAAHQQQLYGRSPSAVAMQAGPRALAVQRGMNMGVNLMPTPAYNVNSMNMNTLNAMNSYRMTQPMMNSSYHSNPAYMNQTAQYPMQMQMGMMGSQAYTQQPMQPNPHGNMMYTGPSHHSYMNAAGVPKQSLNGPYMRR

IC50	Compound
10 to 1000 nM	COc1cccc(OC)c1S(=O)(=O)Nc1noc2cc(Cn3cccn3)cnc12 [Compound 1, N-(6-((1H-pyrazol-1-yl)methyl)isoxazolo[4,5-b]pyridin-3-yl)-2,6-dimethoxybenzenesulfonamide]
10 to 100 nM	COc1ccnc(OC)c1S(=O)(=O)Nc1noc2cc(Cn3cccn3)cc(OC)c12 [Compound 2, N-(6-((1H-pyrazol-1-yl)methyl)-4-methoxybenzo[d]isoxazol-3-yl)-2,4-dimethoxypyridine-3-sulfonamide]
< 10 nM	COc1cccc(OC)c1S(=O)(=O)Nc1noc2cc(Cn3cccn3)cc(OC(F)F)c12 [Compound 3, N-(6-((1H-pyrazol-1-yl)methyl)-4-(difluoromethoxy)benzo[d]isoxazol-3-yl)-2,6-dimethoxybenzenesulfonamide]
10 to 100 nM	COc1cccc(OC)c1S(=O)(=O)Nc1noc2cc(Cn3cccn3)cc(OCC(F)(F)F)c12 [Compound 4, N-(6-((1H-pyrazol-1-yl)methyl)-4-(2,2,2-trifluoroethoxy)benzo[d]isoxazol-3-yl)-2,6-dimethoxybenzenesulfonamide]
10 to 100 nM	COc1ccnc(OC)c1S(=O)(=O)Nc1noc2cc(Cn3cccn3)cc(OC(F)F)c12 [Compound 5, N-(6-((1H-pyrazol-1-yl)methyl)-4-(difluoromethoxy)benzo[d]isoxazol-3-yl)-2,4-dimethoxypyridine-3-sulfonamide]
10 to 100 nM	COc1ccccc1S(=O)(=O)Nc1noc2cc(Cn3cccn3)cc(OC(F)F)c12 [Compound 6, N-(6-((1H-pyrazol-1-yl)methyl)-4-(difluoromethoxy)benzo[d]isoxazol-3-yl)-2-methoxybenzenesulfonamide]
10 to 1000 nM	O=S(=O)(Nc1noc2cc(Cn3cccn3)cc(OC(F)F)c12)c1ccccc1OC(F)(F)F [Compound 7, N-(6-((1H-pyrazol-1-yl)methyl)-4-(difluoromethoxy)benzo[d]isoxazol-3-yl)-2-(trifluoromethoxy)benzenesulfonamide]
10 to 100 nM	COc1cccc(OC)c1S(=O)(=O)Nc1noc2cc(Cn3cccn3)cc(OC(F)(F)F)c12 [Compound 8, N-(6-((1H-pyrazol-1-yl)methyl)-4-(trifluoromethoxy)benzo[d]isoxazol-3-yl)-2,6-dimethoxybenzenesulfonamide]
< 10 nM	COc1cc(C)nc(OC)c1S(=O)(=O)Nc1noc2cc(Cn3cccn3)cc(OC)c12 [Compound 11, N-(6-((1H-pyrazol-1-yl)methyl)-4-methoxybenzo[d]isoxazol-3-yl)-2,4-dimethoxy-6-methylpyridine-3-sulfonamide]
10 to 100 nM	COc1ccccc1S(=O)(=O)Nc1noc2cc(Cn3cccn3)cc(OC(F)(F)F)c12 [Compound 12, N-(6-((1H-pyrazol-1-yl)methyl)-4-(trifluoromethoxy)benzo [d]isoxazol-3-yl)-2-methoxybenzenesulfonamide]
> 1000 nM	COc1cccc(OC)c1S(=O)(=O)Nc1noc2nc(Cn3cccn3)cc(OC)c12 [Compound 13, N-(6-((1H-pyrazol-1-yl)methyl)-4-methoxyisoxazolo[5,4-b]pyridin-3-yl)-2,6-dimethoxybenzenesulfonamide]
< 10 nM	COc1ccccc1S(=O)(=O)Nc1noc2cc(Cn3cccn3)c3c(c12)OCCC3 [Compound 15, N-(5-((1H-pyrazol-1-yl)methyl)-3,4-dihydro-2H-chromeno [8,7-d]isoxazol-9-yl)-2-methoxybenzenesulfonamide]
10 to 100 nM	COc1ncccc1S(=O)(=O)Nc1noc2cc(Cn3cccn3)c3c(c12)OCCC3 [Compound 16, N-(5-((1H-pyrazol-1-yl)methyl)-3,4-dihydro-2H-chromeno [8,7-d]isoxazol-9-yl)-2-methoxypyridine-3-sulfonamide]
< 10 nM	COc1ccnc(OC)c1S(=O)(=O)Nc1noc2cc(Cn3cccn3)c3c(c12)OCCC3 [Compound 17, N-(5-((1H-pyrazol-1-yl)methyl)-3,4-dihydro-2H-chromeno [8,7-d]isoxazol-9-yl)-2,4-dimethoxypyridine-3-sulfonamide]
< 10 nM	COc1cc(C)nc(OC)c1S(=O)(=O)Nc1noc2cc(Cn3cccn3)c3c(c12)OCCC3 [Compound 18, N-(5-((1H-pyrazol-1-yl)methyl)-3,4-dihydro-2H-chromeno [8,7-d]isoxazol-9-yl)-2,4-dimethoxy-6-methylpyridine-3-sulfonamide]
< 10 nM	COc1ccnc(OC)c1S(=O)(=O)Nc1noc2cc(Cn3cccn3)c3c(c12)OCCCC3 [Compound 20, N-(6-((1H-pyrazol-1-yl)methyl)-2,3,4,5-tetrahydrooxepino [3′,2′:5,6]benzo[1,2-d]isoxazol-10-yl)-2,4-dimethoxypyridine-3-sulfonamide]
< 10 nM	COc1cc(C)nc(OC)c1S(=O)(=O)Nc1noc2cc(Cn3cccn3)c3c(c12)OCCCC3 [Compound 21, N-(6-((1H-pyrazol-1-yl)methyl)-2,3,4,5-tetrahydrooxepino [3′,2′:5,6]benzo[1,2-d]isoxazol-10-yl)-2,4-dimethoxy-6-methylpyridine-3-sulfonamide]
< 10 nM	COc1cccc(OC)c1S(=O)(=O)Nc1noc2cc(Cn3cccn3)cc(OCF)c12 [Compound 31, N-(6-((1H-pyrazol-1-yl)methyl)-4-(fluoromethoxy)benzo [d]isoxazol-3-yl)-2,6-dimethoxybenzenesulfonamide]
10 to 100 nM	COc1ccnc(OC)c1S(=O)(=O)Nc1noc2cc(Cn3cccn3)c3c(c12)OCC3 [Compound 32, N-(4-((1H-pyrazol-1-yl)methyl)-2,3-dihydrobenzofuro[7,6-d]isoxazol-8-yl)-2,4-dimethoxypyridine-3-sulfonamide]
< 10 nM	COc1cc(C)nc(OC)c1S(=O)(=O)Nc1noc2cc(Cn3cccn3)cc(OCF)c12 [Compound 37]
10 to 1000 nM	COc1cc(C)ncc1S(=O)(=O)Nc1noc2cc(Cn3cccn3)cc(OC)c12 [Compound 38, N-(6-((1H-pyrazol-1-yl)methyl)-4-methoxybenzo[d]isoxazol-3-yl)-4-methoxy-6-methylpyridine-3-sulfonamide]
10 to 100 nM	COc1cc(C2CC2)nc(OC)c1S(=O)(=O)Nc1noc2cc(Cn3cccn3)cc(OC)c12 [Compound 39, N-(6-((1H-pyrazol-1-yl)methyl)-4-methoxybenzo[d]isoxazol-3-yl)-6-cyclopropyl-2,4-dimethoxypyridine-3-sulfonamide]
10 to 1000 nM	COc1cc(C(F)F)nc(OC)c1S(=O)(=O)Nc1noc2cc(Cn3cccn3)cc(OC)c12 [Compound 40, N-(6-((1H-pyrazol-1-yl)methyl)-4-methoxybenzo[d]isoxazol-3-yl)-6-(difluoromethyl)-2,4-dimethoxypyridine-3-sulfonamide]
10 to 100 nM	COc1cc(C(F)(F)F)nc(OC)c1S(=O)(=O)Nc1noc2cc(Cn3cccn3)cc(OC)c12 [Compound 41, N-(6-((1H-pyrazol-1-yl)methyl)-4-methoxybenzo[d]isoxazol-3-yl)-2,4-dimethoxy-6-(trifluoromethyl)pyridine-3-sulfonamide]
10 to 100 nM	COc1ccnc(OC)c1S(=O)(=O)Nc1noc2cc(Cn3cccn3)c(F)c(OCF)c12 [Compound 42, N-(6-((1H-pyrazol-1-yl)methyl)-5-fluoro-4-(fluoromethoxy)benzo[d]isoxazol-3-yl)-2,4-dimethoxypyridine-3-sulfonamide]

Compound	IC50
COc1ccccc1S(=O)(=O)Nc1noc2cc(Oc3ccccn3)c3c(c12)OCCC3 [Compound 25, 2-methoxy-N-(5-(pyridin-2-yloxy)-3,4-dihydro-2H-chromeno [8,7-d]isoxazol-9-yl)benzenesulfonamide]	< 10 nM
COc1ccccc1S(=O)(=O)Nc1noc2cc(Oc3ccccn3)c3c(c12)OCC3 [Compound 26, 2-methoxy-N-(4-(pyridin-2-yloxy)-2,3-dihydrobenzofuro[7,6-d]isoxazol-8-yl)benzenesulfonamide]	10 to 100 nM
COc1cccc(OC)c1S(=O)(=O)Nc1noc2cc(Oc3cccnn3)c3c(c12)OCCC3 [Compound 30, 2,6-dimethoxy-N-(5-(pyridazin-3-yloxy)-3,4-dihydro-2H-chromeno[8,7-d]isoxazol-9-yl)benzenesulfonamide]	10 to 100 nM
COc1cccc(OC)c1S(=O)(=O)Nc1noc2cc(Oc3ncccn3)c3c(c12)OCCC3 [Compound 33, 2,6-dimethoxy-N-(5-(pyrimidin-2-yloxy)-3,4-dihydro-2H-chromeno[8,7-d]isoxazol-9-yl)benzenesulfonamide]	10 to 100 nM
COc1cccc(OC)c1S(=O)(=O)Nc1noc2cc(Oc3ncco3)c3c(c12)OCCC3 [Compound 34, 2,6-dimethoxy-N-(5-(oxazol-2-yloxy)-3,4-dihydro-2H-chromeno[8,7-d]isoxazol-9-yl)benzenesulfonamide]	< 10 nM
COc1cccc(OC)c1S(=O)(=O)Nc1noc2cc(Oc3ncccc3C)c3c(c12)OCCC3 [Compound 36, 2,6-dimethoxy-N-(5-((3-methylpyridin-2-yl)oxy)-3,4-dihydro-2H-chromeno[8,7-d]isoxazol-9-yl)benzenesulfonamide]	< 10 nM
